Here are results for 16 compounds from paper PMC8915595, “Revisiting the application of Immobilized Artificial Membrane (IAM) chromatography to estimate in vivo distribution properties of drug discovery compounds based on the model of marketed drugs” (ADMET & DMPK, 2020).

Series [1] can be described thus: IAM chromatography on new IAM.PC.DD2 columns (gradient HPLC, CHI (IAM)). Type of series: physicochemical. More on the design: key to CHI (IAM) “new” / P20511-014-3 CHI (IAM): CHI (IAM) from retention times calibrated to predefined CHI standards. The note with it: for log K (IAM): constant values of the calibration set, CHI IAM converted to octanol/water lipophilicity scale by equation 7; for P20511-014-3 CHI (IAM): new IAM.PC.DD2 column batch P20511-014-3, pH 7.4; for R20511-014-3 CHI (IAM): new IAM.PC.DD2 column batch R20511-014-3, pH 7.4; for CHI (IAM) deviation between reference and new IAM.PC.DD2 columns / CHI (IAM) “new”: system suitability test compounds; for CHI (IAM) “new”: new IAM.PC.DD2 columns, pH 7.4. The method in brief:
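Gradient HPLC on IAM.PC.DD2 columns (100 x 4.6 mm, 10 μm, 300 Å; two new silica batches). Retention times calibrated against a nine-compound mixture (acetophenone homologues, acetanilide, paracetamol) with predefined CHI (IAM) values; linear slope and intercept converted compound retention to CHI IAM.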

On the set-up of series [2]: method as in earlier work. The note with it: constant, isocratically determined and predefined values of the calibration set; cited from earlier work.
The conditions of series [3]: human.
For series [4] the following is noted: reference CHI (IAM), old columns; cited from earlier work.
Series [5] deals with T1, human serum albumin (HSA) (Homo sapiens, UniProt P02768). The note with it: cited from earlier work.
Series [6] has as its target T1, human serum albumin (HSA). The series can be described thus: Protein binding on chemically bonded HSA column (Chiralpak-HSA). The settings on record: remeasured in this study, pH 7.4.
Protocol: Mobile phase A was 50 mM ammonium acetate adjusted to pH 7.4 and mobile phase B was 2-propanol. The flow rate was 1.5 mL/min and the run time was 6 min. The 2-propanol gradient was applied from 0 to 35% from 0 to 3.00 min and kept at 35% until 4.00 min.

T1 sequence (P02768 25-609): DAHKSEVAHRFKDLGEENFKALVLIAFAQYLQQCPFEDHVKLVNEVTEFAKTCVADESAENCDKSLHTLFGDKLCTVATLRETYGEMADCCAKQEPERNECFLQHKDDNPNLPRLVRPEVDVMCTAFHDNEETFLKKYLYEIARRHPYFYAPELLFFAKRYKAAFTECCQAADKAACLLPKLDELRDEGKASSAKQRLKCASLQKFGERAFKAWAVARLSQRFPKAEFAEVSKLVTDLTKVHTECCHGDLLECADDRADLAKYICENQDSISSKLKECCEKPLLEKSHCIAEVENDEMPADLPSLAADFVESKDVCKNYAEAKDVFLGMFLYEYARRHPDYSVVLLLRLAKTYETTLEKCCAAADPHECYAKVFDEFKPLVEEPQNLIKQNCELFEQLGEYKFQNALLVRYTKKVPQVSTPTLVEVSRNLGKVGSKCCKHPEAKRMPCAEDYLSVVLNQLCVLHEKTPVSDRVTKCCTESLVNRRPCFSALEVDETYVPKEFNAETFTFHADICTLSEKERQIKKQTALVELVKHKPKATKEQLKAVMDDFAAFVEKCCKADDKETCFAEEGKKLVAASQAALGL

Regarding `CCCCCCCC(=O)c1ccccc1` [Octanophenone], in series [1], the “log K (IAM)” value stood at 4.97. Also, the “CHI (IAM)” value in series [2] was 49.4.
Consider `CCC(=O)c1ccccc1` [Propiophenone], for which the “log K (IAM)” value in series [1] worked out at 2.15. Moreover, the “CHI (IAM)” value in series [2] is reported as 25.9.
With `CCCCCC(=O)c1ccccc1` [Hexanophenone], the “log K (IAM)” value in series [1] was found to be 3.71. The “CHI (IAM)” value in series [2] is 41.8.
In the case of `CC(=O)c1ccccc1` [Acetophenone], in series [1], the “log K (IAM)” value turned out to be 1.67. Also, the “CHI (IAM)” value in series [2] is 17.2.
Consider `CC(=O)Nc1ccc(O)cc1` [Paracetamol], for which, in series [1], the “log K (IAM)” value is 1.20. The “CHI (IAM)” value in series [2] is recorded as 2.90.
As to `COC(=O)C1=C(C)NC(C)=C(C(=O)OCCN(C)Cc2ccccc2)C1c1cccc([N+](=O)[O-])c1` (stereo not shown) [Nicardipine], in series [1], the “P20511-014-3 CHI (IAM)” value is 43.73; the “R20511-014-3 CHI (IAM)” value came out at 43.82; the “CHI (IAM) deviation between reference and new IAM.PC.DD2 columns” value was “very similar”; the “CHI (IAM) “new”” value is reported as 45.0. Besides, the “reference log Vdss” value in series [3] is recorded as 0.47. Further, the “CHI (IAM) from ref [13]” value in series [4] is given as 45.90. The “log K HSA from ref [13]” value in series [5] is 1.41. Besides, the “log K HSA” value in series [6] was 1.95.
For `CC(=O)CCCCn1c(=O)c2c(ncn2C)n(C)c1=O` [Pentoxifylline], in series [1], the “P20511-014-3 CHI (IAM)” value amounted to 13.87 and the “R20511-014-3 CHI (IAM)” value was 14.04. The “reference log Vdss” value in series [3] is -0.1. Further, the “CHI (IAM) from ref [13]” value in series [4] is 12.00. The “log K HSA from ref [13]” value in series [5] is given as 3.27. The “log K HSA” value in series [6] is listed as 4.03.
As for `CC(=O)Nc1ccccc1` [Acetanilide], in series [1], the “log K (IAM)” value amounted to 1.45, the “P20511-014-3 CHI (IAM)” value is given as 11.50 and the “R20511-014-3 CHI (IAM)” value is recorded as 11.55. Moreover, in series [3], the “reference log Vdss” value is -0.13. Also, the “CHI (IAM) from ref [13]” value in series [4] is 10.70. For the same compound, the “log K HSA from ref [13]” value in series [5] is 0.62. For the same compound, in series [2], the “CHI (IAM)” value is 11.5. In addition, in series [6], the “log K HSA” value is listed as 0.43.
Take `CC(C(=O)O)c1cccc(Oc2ccccc2)c1` (stereo not shown) [Fenoprofen]: in series [1], the “P20511-014-3 CHI (IAM)” value amounted to 28.26 and the “R20511-014-3 CHI (IAM)” value is given as 27.17. Further, the “reference log Vdss” value in series [3] is listed as -1.27. Also, the “CHI (IAM) from ref [13]” value in series [4] is reported as 17.20. Moreover, in series [5], the “log K HSA from ref [13]” value is on record as 1.58. Further, in series [6], the “log K HSA” value is 2.32.
Consider `Cc1ccc(C)c(OCCCC(C)(C)C(=O)O)c1` [Gemfibrozil], for which, in series [1], the “P20511-014-3 CHI (IAM)” value came out at 34.53 and the “R20511-014-3 CHI (IAM)” value is listed as 33.70. Besides, the “reference log Vdss” value in series [3] is recorded as -1.34. Also, the “CHI (IAM) from ref [13]” value in series [4] is 32.90. Further, the “log K HSA from ref [13]” value in series [5] is reported as 3.32. Further, the “log K HSA” value in series [6] came out at 4.05.
On to `CCCN(CCC)S(=O)(=O)c1ccc(C(=O)O)cc1` [Probenecid], for which, in series [1], the “P20511-014-3 CHI (IAM)” value was determined as 24.38 and the “R20511-014-3 CHI (IAM)” value is 23.45. In addition, the “reference log Vdss” value in series [3] was -0.75. Moreover, in series [4], the “CHI (IAM) from ref [13]” value was 20.10. For the same compound, in series [5], the “log K HSA from ref [13]” value is reported as 0.76. For the same compound, the “log K HSA” value in series [6] is listed as 0.49.
In the case of `NC(=O)N1c2ccccc2C=Cc2ccccc21` [Carbamazepine], in series [1], the “P20511-014-3 CHI (IAM)” value was determined as 27.07; the “R20511-014-3 CHI (IAM)” value was 27.18; the “CHI (IAM) deviation between reference and new IAM.PC.DD2 columns” value is given as “very similar”; the “CHI (IAM) “new”” value came to 27.0. Moreover, the “reference log Vdss” value in series [3] is recorded as -0.09. In series [4], the “CHI (IAM) from ref [13]” value was 26.50. Moreover, the “log K HSA from ref [13]” value in series [5] is on record as 1.99. Also, the “log K HSA” value in series [6] was 1.81.
With `Nc1ccc(S(=O)(=O)Nc2ccc(Cl)nn2)cc1` [Sulfachlorpyridazine], in series [1], the “P20511-014-3 CHI (IAM)” value is 10.83 and the “R20511-014-3 CHI (IAM)” value was determined as 10.08. For the same compound, the “reference log Vdss” value in series [3] is on record as -0.76. Moreover, the “CHI (IAM) from ref [13]” value in series [4] is given as 6.00. Also, the “log K HSA from ref [13]” value in series [5] is 2.04. In addition, in series [6], the “log K HSA” value amounted to 2.20.
On to `CCCCCCC(=O)c1ccccc1` [Heptanophenone], for which the “log K (IAM)” value in series [1] was determined as 4.30. For the same compound, the “CHI (IAM)” value in series [2] is 45.7.
`CCCCC(=O)c1ccccc1` [Valerophenone]: the “log K (IAM)” value in series [1] is on record as 3.16. Moreover, in series [2], the “CHI (IAM)” value was 37.3.
As for `CCCC(=O)c1ccccc1` [Butyrophenone], the “log K (IAM)” value in series [1] was 2.62. Moreover, in series [2], the “CHI (IAM)” value is 32.0.
